Laboratory results taken from patent US5792799A, “Parenteral delivery of MAO A inhibitors” (Athena Neurosciences, Inc., priority 1996, dated 1998).
“And” between values parts separate entries of the source, which are not always exact repeats. Equal entries are not always repeated.

Columns and labels:
[1] = system: MAO A; test: Comparison of parenteral (s.c.) and oral clorgyline on MAO A activity in striatum, gut and liver (Example 2); format: in vivo, mice; settings: for MAO activity in the striatum, % of control values: mouse striatum; for extent of inhibition of intestinal MAO A activity: mouse intestine
Protocol: (§1) MAO A and MAO B activity were measured as previously described (Yu and Hertz, J. Neurochem. 39:1492-5 (1982)), using 14C-phenylethylamine and 14C-5-hydroxytryptamine as selective substrates for MAO B and MAO A, respectively. Preliminary experiments were performed to ensure that enzyme activity was linear with respect to time and enzyme concentration, and that no more than 10-20% of the substrate was consumed during the incubation period (data not shown). Protein was measured by the method of Lowry et al. (J. Biol. Chem. 193:265-75 (1951)).

[2] = system: MAO A; test: Effect of repeated s.c. or oral administration of clorgyline on MAO A activity in striatum, intestine and liver (Example 3); format: in vivo, mice; settings: for MAO A inhibition in the liver: single or multiple
Protocol: as §1
MAO A activity was measured and compared in the striatum, intestine and liver.

[3] = system: MAO A; test: MAO A activity in mouse striatum, liver and gut after subcutaneous clorgyline (Example 1); format: in vivo, C57BL/6 mice
Protocol: All experiments were performed in strict accordance with the National Institutes of Health (NIH) Guide for the Care and Use of Laboratory Animals. C57BL/6 mice were housed under constant temperature (22° C.) and humidity conditions in a room illuminated for 12 hours per day, with food and water freely available. […] Animals were sacrificed five hours after drug administration. Brains were removed, and dissection of the striata was performed within two minutes of cervical dislocation. Tissues were collected in buffer (pH 7.2), sonicated for approximately 10 seconds, and stored at -70° C. Similar procedures were used to collect, homogenize and store samples from the liver and gut of the animals.
as §1

[4] = 0.6 mg/kg parenteral (s.c.), 5 h
[5] = 0.6 mg/kg, s.c. or oral, mouse liver
[6] = 0.6 mg/kg oral, single administration, 5 h

`C#CCN(C)CCCOc1ccc(Cl)cc1Cl` [clorgyline] was tested, and the “MAO activity in the striatum, % of control values” ([1]; 0.6 mg/kg oral gavage, 5 h) was 40 % of control, the “extent of inhibition of intestinal MAO A activity” value ([1]; 0.6 mg/kg oral, 5 h) was 89% and the “extent of inhibition of intestinal MAO A activity” value [1, 4] was 55%. The “MAO activity in the striatum, % of control values” [1, 4] was 11 % of control, the “MAO A activity maintained in the gut” value ([1]; 0.6 mg/kg parenteral injection, mouse gut) was 50% and the “difference in extent of inhibition of MAO A activity in the liver, oral compared with subcutaneous” value ([1]; 0.6 mg/kg, 5 h, mouse liver) was “No significant difference”. The “MAO A activity present in the liver after clorgyline exposure” value [1, 5] was “more than 50%”, the “intestine MAO A, % of control activity” value ([2]; 0.6 mg/kg oral, multiple administration (five, every 24 h), 5 h after last) was ~15 % of control and the “intestine MAO A, % of control activity” value [2, 6] was “Approximately 20 % of control”. For the same compound, the “striatal MAO A inhibition” value [2, 6] was 15%, the “MAO A inhibition in the liver” value ([2]; 0.6 mg/kg oral) was no more than 25% and the “striatal MAO A residual activity, % of control” value ([2]; 0.6 mg/kg per os, multiple treatments (five, every 24 h), 5 h after last) was “about 50 % of control”. The “striatal MAO A activity, % of the control value” ([2]; 0.6 mg/kg s.c., five consecutive treatments every 24 h, 5 h after last) was 2 % of control, the “inhibition of intestinal MAO A” value ([2]; 0.6 mg/kg s.c., injected once, 5 h) was 50% and the “striatal MAO A inhibition” value ([2]; 0.6 mg/kg s.c., single administration, 5 h) was “approximately 90%”. The “MAO A inhibition in the liver” value ([2]; 0.6 mg/kg subcutaneous) was no more than 25%, the “change in extent of MAO inhibition in the liver, single versus multiple treatments” value [2, 5] was “no significant changes” and the “MAO A activity remaining in the gut” value ([3]; 0.6 mg/kg s.c., 5 h after dose, mouse gut) was 50% and > 50%. For the same compound, the “MAO A activity remaining in the liver” value ([3]; 0.6 mg/kg s.c., 5 h after dose, mouse liver) was greater than 50%, the “inhibition of MAO A activity in the striatum” value ([3]; 0.6 mg/kg s.c., 5 h after dose, mouse striatum) was 90% and > 90% and the “MAO A inhibition in the gut” value ([3]; 0.6 mg/kg s.c., mouse gut) was “approximately 50%”. For the same compound, the “MAO A inhibition in the liver” value ([3]; 0.6 mg/kg s.c., mouse liver) was “approximately 50%”, the “MAO A activity in the gut” value ([3]; 0.8 mg/kg s.c., 5 h after dose, mouse gut) was 31% and the “MAO A activity in the liver” value ([3]; 0.8 mg/kg s.c., 5 h after dose, mouse liver) was “about 50%”. The “MAO activity in the gut, % of control” value ([3]; 1 mg/kg s.c., 5 h after dose, mouse gut) was 27 % of control, the “MAO activity in the liver, % of control” value ([3]; 1 mg/kg s.c., 5 h after dose, mouse liver) was 51 % of control and the “MAO A inhibition in the striatum” value ([3]; 1 mg/kg s.c., 5 h after dose, mouse striatum) was greater than 90%.
